Data as given in publication PMC6934184, “Selective DNA-PKcs inhibition extends the therapeutic index of localized radiotherapy and chemotherapy” (The Journal of Clinical Investigation, 2019).

Target: T1, EPHA2 (Homo sapiens, UniProt P29317)
T1 construct: purchased Thermo Fisher Scientific (Life Technologies) SelectScreen
Assay: SelectScreen Z'LYTE
Type: biochemical
Outline: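 Percent values come from Thermo SelectScreen profiling of NU5455, combining activity and binding assays. CSF1R was run in Z'LYTE format at Km app ATP, and CAMK1 in Adapta format with ATP listed at 10.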

T1 sequence (P29317 24-976): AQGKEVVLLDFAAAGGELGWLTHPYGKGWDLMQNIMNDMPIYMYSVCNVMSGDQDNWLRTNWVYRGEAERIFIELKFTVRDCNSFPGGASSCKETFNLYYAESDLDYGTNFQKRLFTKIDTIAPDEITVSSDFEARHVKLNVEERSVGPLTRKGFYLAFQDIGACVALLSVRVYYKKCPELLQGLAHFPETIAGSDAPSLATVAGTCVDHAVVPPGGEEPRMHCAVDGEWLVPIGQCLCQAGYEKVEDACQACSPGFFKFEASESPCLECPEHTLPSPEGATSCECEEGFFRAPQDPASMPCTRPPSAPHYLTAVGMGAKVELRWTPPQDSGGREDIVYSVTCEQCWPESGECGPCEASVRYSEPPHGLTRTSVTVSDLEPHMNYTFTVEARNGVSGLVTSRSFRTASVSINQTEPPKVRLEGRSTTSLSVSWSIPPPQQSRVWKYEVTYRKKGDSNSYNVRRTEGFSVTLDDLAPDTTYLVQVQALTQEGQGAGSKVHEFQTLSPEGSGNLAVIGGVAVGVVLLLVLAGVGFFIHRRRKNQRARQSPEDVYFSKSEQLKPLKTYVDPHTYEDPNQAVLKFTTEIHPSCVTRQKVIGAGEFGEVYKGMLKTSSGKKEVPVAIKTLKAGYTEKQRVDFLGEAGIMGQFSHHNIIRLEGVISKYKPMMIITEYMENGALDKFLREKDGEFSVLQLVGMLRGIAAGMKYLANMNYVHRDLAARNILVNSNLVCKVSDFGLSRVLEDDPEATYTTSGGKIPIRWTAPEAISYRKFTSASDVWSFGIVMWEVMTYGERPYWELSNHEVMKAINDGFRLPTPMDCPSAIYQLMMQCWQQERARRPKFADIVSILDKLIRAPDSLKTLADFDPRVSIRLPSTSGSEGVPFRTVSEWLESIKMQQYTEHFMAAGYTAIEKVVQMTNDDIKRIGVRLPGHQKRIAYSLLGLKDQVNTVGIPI

**Q.** How did the inhibition at 1 µM turn out when `CN(C(=O)CN1CCOCC1)c1ccc2sc3c(-c4cccc5c(=O)cc(N6CC7CCC(C6)O7)oc45)cccc3c2c1` [NU5455] was run?
**A.** 4.8%
